From patent US7572606B1 (Nereus Pharmaceuticals, Inc., priority 2005, dated 2009) come the findings set out here.

For experiment [1], the target named is T1, trypsin-like activity of rabbit muscle 20S proteasome (Oryctolagus cuniculus, UniProt G1SWK8).
T1 construct: EC50 Trypsin-like; other: purified rabbit 20S proteasome, Boc-LRR-AMC; other: under the conditions tested
T1 sequence (G1SWK8 1-271): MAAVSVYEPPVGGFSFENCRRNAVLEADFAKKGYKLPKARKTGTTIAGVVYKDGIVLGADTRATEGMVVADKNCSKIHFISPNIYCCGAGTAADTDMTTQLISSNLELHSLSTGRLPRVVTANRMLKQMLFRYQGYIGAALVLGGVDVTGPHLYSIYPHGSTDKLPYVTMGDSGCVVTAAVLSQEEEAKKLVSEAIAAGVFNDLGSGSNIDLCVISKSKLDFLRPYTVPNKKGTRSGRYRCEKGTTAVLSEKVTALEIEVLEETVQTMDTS
As to the kind of experiment: In vitro inhibition of 20S proteasome, Boc-LRR-AMC. In kind it is biochemical. The note with it: under the conditions tested.

In experiment [2] the target is caspase-like (PGPH) activity of rabbit muscle 20S proteasome (Oryctolagus cuniculus, UniProt A0A5F9DQW2). As to the kind of experiment: In vitro inhibition of 20S proteasome, Z-LLE-AMC. The following applies: purified rabbit 20S proteasome, Z-LLE-AMC.
caspase-like (PGPH) activity of rabbit muscle 20S proteasome, sequence (A0A5F9DQW2 1-212): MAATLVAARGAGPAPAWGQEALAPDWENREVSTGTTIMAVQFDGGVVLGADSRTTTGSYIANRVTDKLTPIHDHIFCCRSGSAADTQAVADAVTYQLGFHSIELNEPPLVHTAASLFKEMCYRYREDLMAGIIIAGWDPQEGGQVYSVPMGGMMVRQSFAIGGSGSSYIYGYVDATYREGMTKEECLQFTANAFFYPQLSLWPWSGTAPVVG
The test system of experiment [3] is NF-κB-mediated luciferase activity in HEK293 NF-κB/Luc cells. As to the kind of experiment: NF-κB-mediated luciferase reporter gene assay. In kind it is cell-based, human. The following applies: for luciferase activity upon TNF-α stimulation: pretreatment of NF-κB/Luc 293 cells; for pEC50: Homo sapiens, HEK293, 1 h pretreatment, 6 h TNF-α stimulation, read-out: EC50. The procedure:
The HEK293 NF-κB/luciferase reporter cell line is a derivative of the human embryonic kidney cell line (ATCC; CRL-1573) and carries a luciferase reporter gene under the regulation of 5×NF-κB binding sites. […] When performing the luciferase assay, the DMEM basal medium was replaced with phenol-red free DMEM basal medium and the G418 was omitted.
For NF-κB-mediated luciferase assays, HEK293 NF-κB/luciferase cells were seeded at 1.5×10^4 cells/well in 90 μl phenol-red free DMEM complete medium into Corning 3917 white opaque-bottom tissue culture plates. For Formulae II-2, II-4, II-5A and II-18, a 400 μM starting dilution was made in 100% DMSO and this dilution was used to generate an 8-point half log dilution series. […] For formula II-20, a 2.5 mM or 8 mM starting dilution was made in 100% DMSO and the final test concentrations ranged from 6.3 μM to 2.0 nM or 20 μM to 6.3 nM respectively. The plates were returned to the incubator for 1 hour. After 1 hr pretreatment, 10 μl of a 50 ng/ml TNF-α solution, prepared in the phenol-red free DMEM medium was added, and the plates were incubated for an additional 6 hours.
At the end of the TNF-α stimulation, 100 μl of Steady Lite HTS luciferase reagent (Packard Bioscience) was added to each well and the plates were left undisturbed for 10 min at room temperature before measuring the luciferase activity. The relative luciferase units (RLU) were measured by using a Fusion microplate fluorometer (Packard Bioscience).
NF-κB inducible luciferase activity was measured at 6 hours.
A general note: In a reporter assay the amount or activity of a reporter protein is the signal.

The next experiment relates to U266. As to the kind of experiment: Cell growth inhibition, resazurin, 48 h. In kind it is cell-based, human. The note with it: U266, 48 h drug exposure.
The next experiment relates to RPMI 8226. As to the kind of experiment: Cell growth inhibition, resazurin, 48 h. The note with it: Homo sapiens, RPMI-8226, 48 h, RPMI 8226, 48 h drug exposure. The procedure: RPMI 8226 (CCL-155), HT-29 (HTB-38), and B16-F10 (CRL-6475) cells were purchased from ATCC. RPMI 8226 cells were maintained in RPMI 1640 media supplemented with 10% (v/v) FBS, 2 mM L-glutamine, 1 mM sodium pyruvate and Penicillin/Streptomycin at 100 IU/ml and 100 μg/ml, respectively. HT-29 cells were maintained in McCoys 5A supplemented with 10% (v/v) FBS, 2 mM L-glutamine, 1 mM sodium pyruvate, 1% (v/v) non-essential amino acids, 10 mM HEPES and Penicillin/Streptomycin at 100 IU/ml and 100 μg/ml, respectively. B16-F10 cells were maintained in DMEM supplemented with 10% (v/v) FBS, 2 mM L-glutamine, 10 mM HEPES and Penicillin/Streptomycin at 100 IU/ml and 100 μg/ml, respectively.
RPMI 8226 cells were seeded at 2×10^4 cells/well in 90 μl RPMI media containing 10% (v/v) FBS or 1% (v/v) FBS into 96 well black-walled, clear-bottom tissue culture plates. […] Formulae II-16, II-17 and Formula II-18 were serially diluted in media containing 1% or 10% FBS and added in triplicate to the test wells. […] The final concentration of Formula II-18 ranged from 2 μM to 630 pM.
In general terms: The colour change of resazurin is a common sign of viable cells or microbes.

For experiment [4], the target named is T2, chymotrypsin-like activity of rabbit muscle 20S proteasome (Oryctolagus cuniculus, UniProt G1T4Q9).
T2 sequence (G1T4Q9 1-263): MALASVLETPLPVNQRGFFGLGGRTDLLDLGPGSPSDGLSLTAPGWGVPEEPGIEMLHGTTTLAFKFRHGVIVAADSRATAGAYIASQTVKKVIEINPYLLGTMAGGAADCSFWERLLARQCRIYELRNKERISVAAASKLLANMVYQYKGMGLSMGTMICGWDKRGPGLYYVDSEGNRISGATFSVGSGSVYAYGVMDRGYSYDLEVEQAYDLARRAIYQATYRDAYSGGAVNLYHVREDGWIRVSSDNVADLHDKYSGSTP
As to the kind of experiment: In vitro inhibition of 20S proteasome, suc-LLVY-AMC.

Experiment [5] has as its system 20S proteasome chymotrypsin-like activity in RPMI 8226 cells. As to the kind of experiment: Chymotrypsin-like activity of 20S proteasomes in treated cells. The note with it: 1 hr, mean ± SD, n = 3. The class given is cell-based, human. The procedure:
RPMI 8226 (ATCC, CCL-155), the human multiple myeloma cell line, was cultured in RPMI 1640 medium supplemented with 2 mM L-glutamine, 100 units/ml penicillin, 100 μg/ml streptomycin, 1 mM sodium pyruvate and 10% heat inactivated fetal bovine serum at 37° C., 5% CO2 and 95% humidified air. […] DMSO was used as the vehicle control at a final concentration of 0.1%. Following 1 hr incubation of RMPI 8226 cells with the compounds, the cells were pelleted by centrifugation at 2,000 rpm for 10 sec at room temperature and washed 3× with ice-cold 1×Dulbecco's Phosphate-Buffered Saline (DPBS, Mediatech, Herndon, Va.). DPBS washed cells were lysed on ice for 15 min in lysis buffer (20 mM HEPES, 0.5 mM EDTA, 0.05% Triton X-100, pH 7.3) supplemented with protease inhibitor cocktail (Roche Diagnostics, Indianapolis, Ind.). Cell debris was pelleted by centrifugation at 14,000 rpm for 10 min, 4° C. and supernatants (=cell lysates) were transferred to a new tube. Protein concentration was determined by the BCA protein assay kit (Pierce Biotechnology, Rockford, Ill.). […] The total amount of protein used for each assay was 20 μg. The final concentration of Suc-LLVY-AMC and DMSO was 20 μM and 0.2%, respectively.

Where [6] appears, read: read-out: EC50 Caspase-like (PGPH).

For orientation: pEC50 means −log10 of the EC50, conventionally taken in molar units.

pEC50: −log10 of the molar value. “And” between values parts separate entries of the source, which are not always exact repeats. Equal entries are not always repeated. Where two headings read alike, the source gives them in different places.

Take `COC(=O)CCSC(=O)C1(C(O)C2C=CCCC2)NC(=O)C2CCOC21C` (stereo not drawn) [Formula VI-1A]: the “inhibition of the trypsin-like activity of the 20S proteasome” value (“inhibition … of the 20S proteasome” for short) in experiment [1] is given as “able to inhibit the trypsin-like activity”. In addition, the pEC50 in experiment [2] (read-out: EC50 Caspase-like) was 5.10 and 5.06.
Take `COC(=O)CCSC(=O)[C@]1([C@@H](O)[C@@H]2C=CCCC2)NC(=O)[C@H](CCCl)[C@]1(C)O` [Formula II-44]: the “inhibition … of the 20S proteasome” value in experiment [1] was “able to inhibit the trypsin-like activity”. The “luciferase activity upon TNF-α stimulation” value in experiment [3] is given as “dose-dependent decrease of luciferase activity”. In experiment [2] (read-out: EC50 Caspase-like), the negative logarithm of the EC50 (pEC50) was 5.85.
With `C[C@@]12OC(=O)[C@]1([C@@H](O)[C@@H]1C=CCCC1)NC(=O)[C@@H]2CCN=[N+]=[N-]` [Formula II-29], the “inhibition … of the 20S proteasome” value in experiment [1] is recorded as “able to inhibit the trypsin-like activity”. Besides, the “luciferase activity upon TNF-α stimulation” value in experiment [3] is on record as “dose-dependent decrease of luciferase activity”. In addition, the pEC50 in experiment [2] (setting [6]) was 6.27 and 6.28.
For `C[C@@]12OC(=O)[C@]1([C@@H](O)[C@H]1CCC[C@H](Cl)[C@H]1O)NC(=O)[C@@H]2CCCl` [Formula IV-3C], the pEC50 in experiment [3] was below 4.70; with U266 (Homo sapiens, U-266, 48 h, read-out: EC50), 5.11; with U266 (read-out: EC50), 5.08; in the experiment with RPMI 8226, below 4.70; in experiment [2] (read-out: EC50 Caspase-like), below 4.70.
Take `CC[C@@]12OC(=O)[C@]1([C@@H](O)[C@@H]1C=CCCC1)NC(=O)[C@@H]2CCCl` [Formula II-24C]: the pEC50 in experiment [4] (read-out: EC50 Chymotrypsin-like, purified rabbit 20S proteasome, suc-LLVY-AMC) was 5.66; in experiment [2] (read-out: EC50 Caspase-like), below 4.70. In experiment [1], the “inhibition … of the 20S proteasome” value is recorded as “able to inhibit the trypsin-like activity”. Also, the “luciferase activity upon TNF-α stimulation” value in experiment [3] is on record as “dose-dependent decrease of luciferase activity”.
In the case of `CCC[C@H]1C(=O)N[C@@]2([C@@H](O)[C@@H]3C=CCCC3)C(=O)O[C@@]12C` [Formula II-30], the “inhibition … of the 20S proteasome” value in experiment [1] is “able to inhibit the trypsin-like activity”. The “luciferase activity upon TNF-α stimulation” value in experiment [3] is reported as “dose-dependent decrease of luciferase activity”. The results for the pEC50 in experiment [2] (setting [6]) and in experiment [2] (read-out: EC50 Caspase-like) were 6.02 and 5.89, respectively.
On to `CC(C)[C@H](O)[C@@]12NC(=O)[C@H](C)[C@@H]1OC2=O` [Omuralide, reference compound], for which the “% inhibition of the chymotrypsin-like activity of 20S proteasomes in RPMI 8226 cell lysates” value was 5 ± 9% in experiment [5] (1 nM); 8 ± 9% in experiment [5] (5 nM); 4 ± 9% in experiment [5] (10 nM); 17 ± 11% in experiment [5] (50 nM); 32±8% in experiment [5] (100 nM); 68 ± 11% in experiment [5] (500 nM). Further, the “% inhibition of the chymotrypsin-like activity of 20S proteasomes in RPMI 8226 cell lysates” value in experiment [5] (1,000 nM) is recorded as 80 ± 8%; in experiment [5] (10,000 nM) it was 93 ± 1%.
For `CC12OC(=O)C1(C(=O)C1C=CCCC1)NC(=O)C2CCCl` (stereo not drawn) [Formula II-13C], in experiment [1], the “inhibition … of the 20S proteasome” value was “able to inhibit the trypsin-like activity”. Further, in experiment [2] (read-out: EC50 Caspase-like), the pEC50 is below 4.70.
As to `CCC(=O)OCC[C@H]1C(=O)N[C@@]2([C@@H](O)[C@@H]3C=CCCC3)C(=O)O[C@@]12C` [Formula II-22], the “inhibition … of the 20S proteasome” value in experiment [1] is recorded as “able to inhibit the trypsin-like activity”. Moreover, in experiment [3], the “luciferase activity upon TNF-α stimulation” value is “dose-dependent decrease of luciferase activity”. Further, in experiment [2] (read-out: EC50 Caspase-like), the pEC50 is 5.85.
Regarding `C[C@@H]1C(=O)N[C@@]2([C@@H](O)[C@@H]3C=CCCC3)C(=O)O[C@@]12C` [Formula II-28], the pEC50 in experiment [2] (read-out: EC50 Caspase-like) is below 4.70.
`C[C@@]12OC(=O)[C@]1(C(=O)C1=CC(O)CCC1)NC(=O)[C@]2(C)CCCl` (stereo partly drawn) [Formula II-31]: the negative-log EC50 (pEC50) in experiment [4] is below 4.70.
Take `C[C@@]12OC(=O)[C@]1([C@H](O)[C@@H]1C=CCCC1)NC(=O)[C@@H]2CCCl` [Formula II-25]: the pEC50 was below 4.70 in experiment [3]; below 4.70 in the experiment with U266 (Homo sapiens, U-266, 48 h); below 4.70 in the experiment with RPMI 8226.
For the compound `C[C@@]12OC(=O)[C@]1([C@@H](O)[C@@H]1C=CCCC1)NC(=O)[C@@H]2CCO` [Formula II-21], the “inhibition … of the 20S proteasome” value in experiment [1] was “able to inhibit the trypsin-like activity”. Moreover, the “luciferase activity upon TNF-α stimulation” value in experiment [3] is reported as “dose-dependent decrease of luciferase activity”. Besides, the pEC50 in experiment [2] (setting [6]) was 5.59 and 5.63; in experiment [2] (read-out: EC50 Caspase-like), 5.64.
Turning to `C[C@@]12OC(=O)[C@]1([C@@H](O)[C@@H]1C=CCCC1)NC(=O)[C@H]2CCCl` [Formula II-26], in experiment [1], the “inhibition … of the 20S proteasome” value is reported as “able to inhibit the trypsin-like activity”. Besides, the “luciferase activity upon TNF-α stimulation” value in experiment [3] is reported as “dose-dependent decrease of luciferase activity”.
